According to PMC6433232, “Targeting mitochondria in cancer therapy could provide a basis for the selective anti-cancer activity” (PLoS ONE, 2019):
Read-outs that look alike come from different tables or passages of the source.

Legend:
[1] = test system: Recombinant NADH/NADPH dehydrogenase; experiment: NADH/NADPH dehydrogenase-mediated ROS generation assay; format: biochemical; conditions: 30 μM, 4 h at 37°C; for H2O2 generation, NADH/NADPH dehydrogenase -: absence of NADH/NADPH dehydrogenase; for H2O2 generation, NADH/NADPH dehydrogenase +: presence of NADH/NADPH dehydrogenase
Method: Recombinant NADH/NADPH dehydrogenase (0.5 units/well) in a 96-well plate was incubated in 100 μl of the assay buffer (50 mM potassium phosphate buffer, pH 7.5 supplemented with 1 mM EDTA) containing NADPH (3 μM) and superoxide dismutase (SOD) (100 units/well) with and without compound (30 μM) for 4 h at 37°C. At the end of incubation, the level of hydrogen peroxide was measured using a Hydrogen Peroxide Assay kit (Cayman). Control samples were without NADH/NADPH dehydrogenase. The rate of NADH/NADPH dehydrogenase- and compound-mediated ROS production was determined by subtracting values that were obtained in the absence of NADPH dehydrogenase. One unit of NADH/NADPH dehydrogenase was defined as the amount of enzyme required to reduce 1.0 μmole cytochrome C per min/mg in the presence of menadione substrate at 37°C. One unit of SOD was defined as the amount of enzyme required to inhibit reduction of cytochrome C by 50% in a coupled system with xanthine oxidase at pH 7.8 at 25°C in a 3.0 mL reaction volume. Xanthine oxidase concentration should produce an initial ΔA550 of 0.025 ± 0.005 per min.
As the next step, we examined the capability of the selected compounds to generate ROS in the presence or absence of NADH/NADPH dehydrogenase (Table 1). ROS can be generated by NADH/NADPH-dehydrogenase via the one electron reduction of a quinone ring of 1,4-NQs. Unstable half-reduced quinones (semiquinones) transfer electrons to molecular oxygen, thus generating superoxide anion radicals (O2^●-), which are converted by SOD to hydrogen peroxide. We believe that our assay measuring compound’s ability to generate H2O2 in the presence or absence of NADH/NADPH dehydrogenase more closely resembles conditions inside the cell than the assay designed to measure compound’s redox potential values. […] To determine the ability of compounds to induce ROS, compounds were incubated for 4 h at 37°C with and without NADH/NADPH-dehydrogenase in the presence of NADPH as an electron donor and SOD to convert generated superoxide radicals into hydrogen peroxide. At the end of incubation, 10-acetyl-3,7-dihydroxyphenoxazine (ADHP) and horseradish peroxidase (HRP) were added to the reaction and the level of HRP-mediated formation of the fluorogenic product, resorufin, was measured on a plate reader. ROS production was detected in reactions with either the toxic or non-toxic compounds.

[2] = Distribution coefficient LogD; format: physicochemical; conditions: pH 7.4
Description: We conclude that the analysis of the octanol-water partitioning is not sufficient to establish a link between degree of lipophilicity and biological activities of the selected compounds.

[3] = test system: human primary hepatocytes; experiment: cells; conditions: Hepatocyte
Description: (§1) We selected hepatocytes as normal cells because hepatocytes are mediate toxicity to multiple drugs and are used as a standard to assess toxicity of drugs in vitro [28]. […] For comparison with the standard of care, doxorubicin was also included in this analysis.

[4] = molecular target: T1, human GAPDH enzyme (Homo sapiens, UniProt P04406); experiment: GAPDH activity assay in MIA PaCa-2 cells; format: cell-based; conditions: 2 h, read-out: GAPDH, enzyme residual activity as compared to DMSO-treated sample
T1 construct: endogenous in cells; host or cells: MIA PaCa-2 cells
Method: Cells were incubated for 2 h with either compounds (30 μM) or DMSO in a 6-well plate. Next, cells were collected in 200 μl of PBS and disrupted by sonication. Insoluble material was removed by centrifugation. The level of GAPDH activity was determined by GAPDH activity assay kit (BioVision).
As a final step, we evaluated the inhibitory activity of the selected compounds against human GAPDH enzyme in a cell-based assay using MIA PaCa-2 cells (Table 1). Cells were pre-incubated with compounds for 2 h at 37°C followed by cell lysis using sonication and GAPDH activity assay. The ability of compounds to inhibit GAPDH was expressed as percentage of GAPDH residual activity with respect to DMSO-treated cells. […] Similar to the GSR activity assay, only two of the most toxic compounds 31 and 32, were able to inhibit GAPDH by 95 and 97%, respectively.

[5] = molecular target: T2, human GSR enzyme (recombinant GSR) (Homo sapiens, UniProt P00390); experiment: Glutathione reductase (GSR) activity assay; format: biochemical; conditions: for remaining activity at 30 µM: 2 h at 25°C, read-out: GSR, enzyme residual activity as compared to DMSO-treated sample; for inhibition at 30 µM: read-out: GSR-inhibiting activity
T2 construct: made in house; host or cells: E. coli BL21(DE3)
T2 sequence (P00390 44-522): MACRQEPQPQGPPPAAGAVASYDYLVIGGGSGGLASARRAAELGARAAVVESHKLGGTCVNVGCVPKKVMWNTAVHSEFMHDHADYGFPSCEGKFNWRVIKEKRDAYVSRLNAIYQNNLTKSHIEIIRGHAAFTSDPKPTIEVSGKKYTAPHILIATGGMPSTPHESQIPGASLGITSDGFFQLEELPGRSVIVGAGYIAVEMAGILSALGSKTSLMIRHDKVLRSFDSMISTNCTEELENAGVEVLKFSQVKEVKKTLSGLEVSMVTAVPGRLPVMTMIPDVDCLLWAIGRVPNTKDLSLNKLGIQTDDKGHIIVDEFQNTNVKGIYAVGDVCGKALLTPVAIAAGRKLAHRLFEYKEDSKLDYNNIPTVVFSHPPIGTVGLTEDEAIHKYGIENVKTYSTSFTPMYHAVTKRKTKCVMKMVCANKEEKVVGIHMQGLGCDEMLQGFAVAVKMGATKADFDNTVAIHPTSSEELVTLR
Method: Recombinant GSR (0.5 u/well) in a 96-well plate was incubated in the GSR assay buffer (50 mM potassium phosphate buffer, pH 7.5 supplemented with 1 mM EDTA), 100 μl with and without compound (30 μM) for 2 h at 25°C. At the end of incubation, 100 μl of solution containing NADPH (0.087 mM), oxidized glutathione (GSSG) (0.95 mM) and 1 μl of the reagent that detects ratio of GSSG to reduced glutathione (GSH) (Abcam) were added and the mixture was incubated for an additional 1 h at 25°C. GSR activity was measured by using 490-nm excitation and monitoring fluorescence at 520 nm with a fluorescence plate reader. One unit of GSR activity was defined as the amount of enzyme required to produce 1 μM of GSH in a total reaction volume of 200 μl in 1 minute in the GSR assay buffer containing NADPH (0.087 mM), GSSG (0.95 mM) and 1 μl of GSH/GSSG ratio detection reagent (Abcam).
Next, we evaluated the inhibitory activity of the selected compounds against human GSR enzyme using recombinant GSR and Abcam GSH/GSSG ratio detection reagent (Table 1). Briefly, GSR activity was measured by following oxidized glutathione (GSSG) reduction in the presence of NADPH and expressed as percentage of residual activity with respect to DMSO-treated enzyme. The residual activity of GSR for both the non-toxic and toxic compounds was quite heterogeneous, ranging from 100% (compounds 38) to 3% (compound 32). […] We thus conclude that GSR inhibitory activity alone cannot be used to predict the selective cytotoxicity index.

[6] = in vitro; conditions: human
Description: as §1

[7] = octanol/water, read-out: LogD, pH = 7.4

T1 sequence (P04406 whole entry): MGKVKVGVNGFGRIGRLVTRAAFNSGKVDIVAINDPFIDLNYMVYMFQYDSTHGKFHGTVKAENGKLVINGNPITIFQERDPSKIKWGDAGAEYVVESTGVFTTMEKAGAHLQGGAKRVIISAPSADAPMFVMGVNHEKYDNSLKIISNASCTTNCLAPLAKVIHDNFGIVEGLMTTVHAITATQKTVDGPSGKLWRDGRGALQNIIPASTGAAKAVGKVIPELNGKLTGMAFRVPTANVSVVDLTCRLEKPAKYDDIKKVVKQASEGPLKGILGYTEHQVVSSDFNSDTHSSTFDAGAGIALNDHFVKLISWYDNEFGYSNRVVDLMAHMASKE

## NC1=C(Cl)C(=O)c2ccccc2C1=O [compound 1, 2-chloro-3-amino-1,4-NQ]
[1]
  H2O2 generation, NADH/NADPH dehydrogenase -: 4.1 µM
  H2O2 generation, NADH/NADPH dehydrogenase +: 7.6 µM
[2]; [7]
  logD: 2.01
[3]; read-out: EC50, μM Hepatocytes
  EC50: 17 µM
[4]
  remaining activity at 30 µM: 100%
[5]
  remaining activity at 30 µM: 33%
  inhibition at 30 µM: 67%
[6]; primary hepatocytes
  CC50: 17 µM

## CCNC1=C(Cl)C(=O)c2ccccc2C1=O [compound 3]
[1]
  H2O2 generation, NADH/NADPH dehydrogenase -: 3.9 µM
  H2O2 generation, NADH/NADPH dehydrogenase +: 6.3 µM
[2]; [7]
  logD: 1.01
[3]; read-out: EC50, μM Hepatocytes
  EC50: 81.9 µM
[4]
  remaining activity at 30 µM: 100%
[5]
  remaining activity at 30 µM: 59%
[6]; primary hepatocytes
  CC50: 81.9 µM

## CCCCCCCNC1=C(Cl)C(=O)c2ccccc2C1=O [compound 8]
[1]
  H2O2 generation, NADH/NADPH dehydrogenase -: 2.0 µM
  H2O2 generation, NADH/NADPH dehydrogenase +: 2.8 µM
[2]; [7]
  logD: 0.17
[3]; read-out: EC50, μM Hepatocytes
  EC50: 78.6 µM
[4]
  remaining activity at 30 µM: 100%
[5]
  remaining activity at 30 µM: 93%
  inhibition at 30 µM: 7%
[6]; primary hepatocytes
  CC50: 78.6 µM

## CC(C)(C)NC1=C(Cl)C(=O)c2ccccc2C1=O [compound 13]
[1]
  H2O2 generation, NADH/NADPH dehydrogenase -: 2.7 µM
  H2O2 generation, NADH/NADPH dehydrogenase +: 4.3 µM
[2]; [7]
  logD: 0.52
[3]; read-out: EC50, μM Hepatocytes
  EC50: 29.9 µM
[4]
  remaining activity at 30 µM: 100%
[5]
  remaining activity at 30 µM: 45%
[6]; primary hepatocytes
  CC50: 29.9 µM

## CC1CN1C1=C(Cl)C(=O)c2ccccc2C1=O (centres unmarked) [compound 16]
[1]
  H2O2 generation, NADH/NADPH dehydrogenase -: 2.1 µM
  H2O2 generation, NADH/NADPH dehydrogenase +: 3.8 µM
[2]
  logD: 0.7
[3]; read-out: EC50, μM Hepatocytes
  EC50: 78 µM
[4]
  remaining activity at 30 µM: 100%
[5]
  remaining activity at 30 µM: 75%
[6]
  CC50: 78 µM

## O=C1C(Cl)=C(NCCO)C(=O)c2ccccc21 [compound 17]
[1]
  H2O2 generation, NADH/NADPH dehydrogenase -: 2.6 µM
  H2O2 generation, NADH/NADPH dehydrogenase +: 4.8 µM
[2]; [7]
  logD: 1.12
[3]; read-out: EC50, μM Hepatocytes
  EC50: 83 µM
[4]
  remaining activity at 30 µM: 89%
[5]
  remaining activity at 30 µM: 65%
[6]; primary hepatocytes
  CC50: 83 µM

## COCCNC1=C(Cl)C(=O)c2ccccc2C1=O [compound 21]
[1]
  H2O2 generation, NADH/NADPH dehydrogenase -: 6.5 µM
  H2O2 generation, NADH/NADPH dehydrogenase +: 6.4 µM
[2]; [7]
  logD: 0
[3]; read-out: EC50, μM Hepatocytes
  EC50: 60.4 µM
[4]
  remaining activity at 30 µM: 100%
[5]
  remaining activity at 30 µM: 65%
[6]; primary hepatocytes
  CC50: 60.4 µM

## CCCCOCCCNC1=C(Cl)C(=O)c2ccccc2C1=O [compound 26]
[1]
  H2O2 generation, NADH/NADPH dehydrogenase -: 5.9 µM
  H2O2 generation, NADH/NADPH dehydrogenase +: 3.8 µM
[2]; [7]
  logD: 0
[3]; read-out: EC50, toxicity to hepatocytes
  EC50: 3.6 µM
[3]; read-out: EC50, μM Hepatocytes
  EC50: 4.8 µM
[4]
  remaining activity at 30 µM: 94%
[5]
  remaining activity at 30 µM: 66%
[6]; primary hepatocytes
  CC50: 4.8 µM
